# “Also recorded” adds a separate entry of the source.
# How the values were obtained:
# [1] = cited from earlier work
# [2] = system: patients who have Parkinson's disease; conditions: cited from earlier work
# Solubility in water = type: physicochemical
# Experimental: Other anaesthetic agents are administered to the patient by means of injection. Although generally less desirable than inhaled agents for reasons of ease of administration and the maintenance of a controlled amount of the anaesthetic composition, these are used in an variety of applications. For example, propofol is a widely used anaesthetic administered to the patient by injection. The anaesthetic agents is propofol contained in an appropriate formulation. […] Propofol must be thoroughly distributed in any anaesthetic formulation, and generally brought in to solution, because the administration of propofol itself in to the patient's blood stream can cause severe problems.
# Preparation of anaesthetic formulations of the invention is generally straightforward.
# In addition, some poloxamers require increased temperatures in order to satisfactorily micellise in water. In general, concentrations of poloxamer of about 10% w/v are useful in the present invention, but concentrations of poloxamers, whether single or mixed, can be selected as appropriate and will generally be above 0.5% and below about 20%. More preferred concentrations are from 5% to 15%. Some poloxamers will begin to gel at higher concentrations, and any poloxamer concentration that gels at body temperature, especially when in association with propofol, should be avoided for injection purposes.
# [3] = Solubilisation of propofol in aqueous poloxamer solution (micellar)
smiles,measurement,setting,value
CC(C)c1cccc(C(C)C)c1O [propofol],half-life in the bloodstream,"[1]; bloodstream, patient",nine
same,concentration in the body,[1]; three days after propofol anaesthesia,less than 0.02 mg/kg bodyweight
same,duration of tremor reduction,[2]; after propofol anaesthesia,up to three
same,effect on tremors (in words),[2]; after-effect of propofol anaesthesia,reduction in tremors
same,solubility in water (in words),Solubility in water,virtually insoluble in water; also recorded: not readily soluble in water
same,maximum concentration of propofol,"[3]; 10% w/w poloxamer in water, poloxamer P237",about 3.2%
same,propofol dissolved,[3]; poloxamer P407,1.7%
